Common to all, as to assay type: biochemical
In assay [1] the target is T1, hDDAH-1 (Homo sapiens (Human), UniProt O94760). Briefly: In vitro hDDAH-1 assay (HPLC), inhibition at 1 mM inhibitor. The note with it: inhibitor 1 mM, NMMA 200 μM, 2 μg hDDAH-1, 30 min 37° C.; MV±SD of at least four incubations. As for the experimental part:
This assay was used to determine the inhibiting effect of the inhibitors in a concentration of 1 mM. A standard incubation mixture consisted of 75 μl of 50 mM potassium phosphate buffer pH 7.4 and contained NMMA in a concentration of 200 μM. The inhibitors were used in final concentrations of 1 mM. By adding 2 μg of hDDAH-1, the reaction was started and the samples were incubated for 30 minutes at 37° C. in, a shaking water bath. The reaction was then stopped by adding 75 μl of acetonitrile, the samples were shaken for 5′ minutes and centrifuged (12,000 g, 5 min). The supernatant was added to the HPLC.
In addition, three incubations without added inhibitor were carried out in each case and worked up as specified above. The L-citrulline concentration detected in the samples was set at 100% and the amount of L-citrulline formed in the samples with added inhibitor was referred to this value.
For analysing the samples of the in vitro hDDAH-1 assay (HPLC), o-PA pre-column derivatisation was used with subsequent fluorescence detection of the amino acids. • HPLC plant: Waters Autosampler 717plus, Waters 600 Controller, Waters 600 Pump, Waters Fluorescence Detector 470 and EZChrom Elite Client/Server Measurement and evaluation software (version 2.8.3) • Stationary phase: NovaPak RP-18 column 4 μm (4×150 mm, VDS Optilab) pre-column: Phenomenex C18 (4×3.0 mm) • Temperature: 30° C.
• Detection: Fluorescence: λex: 338 nm; 425 nm. • Injection volume: 10 μl • Derivat. reagent: 50 mg o-PA dissolved in 1 ml of methanol • +9 ml 0.2 M of potassium borate buffer pH 9.4 • +53 μl 2-mercaptoethanol • Derivatisation: The auto sampler was programmed such that 10 μl of the sample were mixed with 14 μl of the derivatisation reagent and could react for 3 minutes at room, temperature prior to injection. Retention times: • L-citrulline 12.2±0.3 min • NMMA 15.8±0.4 min • Methylamine 23.4±0.1 min

For assay [2], the target named is T1, hDDAH-1. Briefly: Determination of the IC50 value (plate-reader assay). Particulars: NMMA 300 μM, 4 μg recombinant hDDAH-1, 30 min 37° C.; determined at least twice.
Protocol: The samples for the plate-reader assay were incubated directly on a 96-well microtiter plate. An incubation mixture consisted of 150 μl of 50 mM potassium phosphate buffer pH 7.4 with NMMA in a final concentration of 300 μM. The inhibitor was added in five different concentrations and the reaction was started by adding 4 μg of recombinant hDDAH-1. In addition, two mixtures without added inhibitor were incubated. The plate was closed with a lid and incubated for 30 minutes on a plate incubator (shaker DTS-4, LTF-Labortechnik GmbH, Wasserburg, Germany) at 37° C. The reactions were stopped using 200 μl of the Colder reagent and the citrulline that had formed was derivatised (see derivatisation for plate-reader assay). The IC50 value was then calculated by means of SigmaPlot 8.0 (SPSS Chicago, USA). Derivatisation was carried out on particularly heat-stable 96-well microtiter plates. 200 μl of the Colder reagent was added to the samples (150 μl) and to prevent evaporation, the plate was closed with a heat-stable adhesive film (Nunc, Wiesbaden, Germany). Colour formation then took place in the drying oven at 95° C. for 15-20 minutes. Before photometric measurements were taken, there was a wait until the plate had reached room temperature and then the colour intensity at 540.5 nm (Carry 50 microplate reader, Varian, Darmstadt, Germany) was measured.
For assay [3], the target named is T1, hDDAH-1. The experiment in a line: Determination of the Ki value (plate-reader assay). Particulars: five NMMA concentrations (50-1250 μM), recombinant hDDAH-1; determined at least twice.
Protocol: The Ki value was determined as described for the IC50 value, with the difference that five different NMMA concentrations (50, 100, 300, 750 and 1250 μM) were used. The incubations were carried out such that each NMMA concentration was in each case incubated twice with each of the five inhibitor concentrations. On top of this, incubations using the different NMMA concentrations were carried out without added inhibitor.
For each inhibitor concentration, using SigmaPlot 8.0 (SPSS Inc., Chicago, USA) the respective apparent Km value and Vmax were determined. Via secondary plotting of the inhibitor concentrations versus Km/Vmax the Ki value was determined by extrapolation of the least-squares lines onto the abscissa.
Derivatisation was carried out on particularly heat-stable 96-well microtiter plates. 200 μl of the Colder reagent was added to the samples (150 μl) and to prevent evaporation, the plate was closed with a heat-stable adhesive film (Nunc, Wiesbaden, Germany). Colour formation then took place in the drying oven at 95° C. for 15-20 minutes. Before photometric measurements were taken, there was a wait until the plate had reached room temperature and then the colour intensity at 540.5 nm (Carry 50 microplate reader, Varian, Darmstadt, Germany) was measured. Measurement took place during 20 minutes since the reaction product is not stable (Knipp and Vasak 2000).

T1 sequence (O94760 whole entry): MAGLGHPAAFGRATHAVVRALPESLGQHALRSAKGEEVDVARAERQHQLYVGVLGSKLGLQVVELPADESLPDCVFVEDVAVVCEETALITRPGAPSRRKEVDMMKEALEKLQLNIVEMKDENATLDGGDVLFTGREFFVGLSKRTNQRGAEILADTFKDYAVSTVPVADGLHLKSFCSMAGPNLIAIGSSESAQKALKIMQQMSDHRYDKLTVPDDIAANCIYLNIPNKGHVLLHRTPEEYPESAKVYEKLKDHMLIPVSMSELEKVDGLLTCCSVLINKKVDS

For `C=CCC(=N)NCCCCN` [Substance 5, N-(4′-aminobutyl)but-3-enamidine bis(trifluoracetate)], testing at 1000 µM against hDDAH-1 [1] gave an inhibition of 40 ± 6%.
Regarding `COCC/N=C(/N)NCCCCN` [Substance 3, N-(4-aminobutyl)-N′-(2-methoxyethyl)guanidine bis(trifluoracetate)], the inhibition (commonly how much of the control response was suppressed) at 1000 µM at hDDAH-1 [1] was found to be 80 ± 5%. In addition, the IC50 (usually the concentration at which inhibition is half-maximal) at hDDAH-1 [2] was 70 ± 16 µM. In addition, on hDDAH-1 [3], the Ki (commonly the equilibrium dissociation constant of an inhibitor or competing ligand from its target) amounted to 18 ± 6 µM.
With `COCCNC(=N)NCCC[C@H](N)C(=O)O` [Substance L-257, N^ω-(2-methoxyethyl)-L-arginine, reference compound], at 1000 µM the inhibition on hDDAH-1 [1] was 89 ± 2%.

The values above are taken from patent US8921421B2, “Inhibitors of dimethylarginine dimethylaminohydrolase” (Christian-Albrechts-Universitaet Zu Kiel, priority 2008, dated 2014).
